Experimental data published in US6096747A, “Phenylaminocarbonyl derivatives and processes for their preparation” (Celltech Therapeutics Limited, priority 1992, dated 2000).

Experiments:
PDE IV = assay: Isolated enzyme PDE IV inhibition (HL60 cells); type: biochemical; details: Ki PDE IV HL60 at (1 μM); pH 7.5, 30° C.; read-out: approximate Ki, PDE IV HL60
Protocol: The potency and selectivity of the compounds of the invention was determined using a battery of distinct PDE isoenzymes as follows:
The enzymes were purified to kinetic homogeneity using standard chromatographic techniques.
Phosphodiesterase activity was assayed as follows. The reaction was conducted in 150 μl of standard mixture containing (final concentrations): 50 mM TES-NaOH buffer (pH 7.5), 10 mM MgCl2, 0.1 μM [^3 H]-cAMP and vehicle or various concentrations of the test compounds. The reaction was initiated by addition of enzyme and conducted at 30° C. for between 5 to 30 mins. The reaction was terminated by addition of 50 μl 2% trifluoroacetic acid containing [^14 C]-5'AMP for determining recovery of the product. An aliquot of the sample was then applied to a column of neutral alumina and the [^3 H]-cAMP eluted with 10 ml 0.1 TES-NaOH buffer (pH8). The [^3 H]-5'-AMP product was eluted with 2 ml 2M NaOH into a scintillation vial containing 10 ml of scintillation cocktail. Recovery of [^3 H]-5'AMP was determined using the [^14 C]-5'AMP and all assays were conducted in the linear range of the reaction.

right atrial muscle = details: selective PDE IV / PDE III reference inhibitors; background statement; cited from earlier work
papillary muscle = details: selective PDE IV / PDE III reference inhibitors; background statement; cited from earlier work
[1] = non-specific PDE inhibitor; cited from earlier work

Compound	Ki (PDE IV)	direct effects on atria (chronotropic), reference inhibitors (right atrial muscle)	direct effects on papillary muscle (inotropic), reference inhibitors (papillary muscle)	cardiovascular changes [1]
COc1ccc(NC(=O)c2ccccc2[N+](=O)[O-])cc1OC1CCCC1 [Example 3, 3-Cyclopentyloxy-4-methyloxy-N-(2-Nitrobenzoyl)aniline]	~179 nM			
COc1ccc(C2CNC(=O)C2)cc1OC1CCCC1 (stereo not shown) [rolipram]		do not have any direct effects	do not have any direct effects	
Cc1[nH]c(=O)c(C#N)cc1-c1ccncc1 [milrinone]		positive chronotropic and inotropic effects	positive chronotropic and inotropic effects	
COc1ccc(NC(=O)c2ccccc2)cc1OC1CCCC1 [Example 1, N-Benzoyl-3-cyclopentyloxy-4-methyloxyaniline]	~391 nM			
Cn1c(=O)c2[nH]cnc2n(C)c1=O [theophylline]				significant cardiovascular changes such as tachycardia
